Values quoted from earlier work, collected in US7605180B2, “Nateglinide-containing preparation” (Ajinomoto Co., Inc., priority 2000, dated 2009).

Tests used:
blood glucose = settings: oral administration

Water solubility: poorly water soluble
Structure (SMILES): CC(C)[C@H]1CC[C@H](C(=O)N[C@H](Cc2ccccc2)C(=O)O)CC1 [nateglinide, N-(trans-4-isopropylcyclohexylcarbonyl)-D-phenylalanine]
Blood glucose-lowering effect (blood glucose): excellent blood glucose-lowering effect
